The record followed here is patent publication EP0262053A2, “Amino-acid derivatives, their preparation and pharmaceutical compositions containing them” (CENTRE NATIONAL DE LA RECHERCHE SCIENTIFIQUE (CNRS), priority 1986, dated 1988).

Experiment [1] concerns the target T1, enképhalinase purifiée du rein de lapin (Oryctolagus cuniculus, UniProt P08049).
T1 construct: l'enképhalinase purifiée du rein de lapin; from tissue; host or cells: rabbit kidney
T1 sequence (P08049 1-750): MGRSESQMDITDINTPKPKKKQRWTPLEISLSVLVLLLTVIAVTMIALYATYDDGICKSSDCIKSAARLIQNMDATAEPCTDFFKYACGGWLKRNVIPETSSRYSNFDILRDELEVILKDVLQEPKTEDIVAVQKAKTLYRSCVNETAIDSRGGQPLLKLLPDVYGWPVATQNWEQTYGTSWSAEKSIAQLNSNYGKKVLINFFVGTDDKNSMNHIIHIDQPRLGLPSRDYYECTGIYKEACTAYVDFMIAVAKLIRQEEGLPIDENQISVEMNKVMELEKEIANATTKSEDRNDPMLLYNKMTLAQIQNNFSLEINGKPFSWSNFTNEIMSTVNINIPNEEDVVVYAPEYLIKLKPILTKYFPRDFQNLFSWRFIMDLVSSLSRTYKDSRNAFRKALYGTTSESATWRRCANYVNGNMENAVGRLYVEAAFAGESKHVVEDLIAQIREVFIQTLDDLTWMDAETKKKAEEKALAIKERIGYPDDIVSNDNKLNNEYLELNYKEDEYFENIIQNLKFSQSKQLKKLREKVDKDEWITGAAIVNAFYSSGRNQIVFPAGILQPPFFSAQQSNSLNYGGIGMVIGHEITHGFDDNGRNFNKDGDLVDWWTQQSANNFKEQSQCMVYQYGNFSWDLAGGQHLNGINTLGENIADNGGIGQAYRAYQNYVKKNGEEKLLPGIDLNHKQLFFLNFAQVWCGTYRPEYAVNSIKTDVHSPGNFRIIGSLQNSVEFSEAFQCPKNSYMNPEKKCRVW
In words: Inhibitory power on enkephalinase (endopeptidase), substrate [3H]D-Ala2-Leu5 enkephalin. Format: biochemical. The note with it: purified rabbit kidney enzyme, 20 min at 25°C, Tris-HCl pH 7.4; read-out: Enképhalinase(M), concentrations inhibitrices 50 % (converted). The procedure:
Le pouvoir inhibiteur est déterminé sur de l'enképhalinase purifiée du rein de lapin en suivant le protocole décrit dans la littérature (Llorens, C., B. Malfroy, J.C. Schwartz, G. Gacel, B.P. Roques et al., 1982, J. Neurochem. 39, 1081).
Après une pré-incubation de 15 minutes à 25°C, une aliquote de protéines est incubée pendant 20 minutes à 25°C en présence de 20 nanomoles de [³H]D-Ala²-Leu⁵ enképhaline et du produit à tester dans le tampon Tris-HCl (pH 7.4) 50 mM. On arrête la réaction par addition d'HCl 0.2 N. Le métabolite tritié [³H]Tyr-D-Ala-Gly est séparé de la D-Ala²-Leu⁵-enképhaline par chromatographie sur colonne de porapak.
(§1) L'activité des différents produits est exprimée en concentrations inhibitrices 50 %.

For experiment [2], the target named is T2, aminopeptidase purifiée du rein de lapin (Oryctolagus cuniculus, UniProt P15541).
T2 construct: purifiée du rein de lapin; from tissue; host or cells: rabbit kidney
T2 sequence (P15541 1-966): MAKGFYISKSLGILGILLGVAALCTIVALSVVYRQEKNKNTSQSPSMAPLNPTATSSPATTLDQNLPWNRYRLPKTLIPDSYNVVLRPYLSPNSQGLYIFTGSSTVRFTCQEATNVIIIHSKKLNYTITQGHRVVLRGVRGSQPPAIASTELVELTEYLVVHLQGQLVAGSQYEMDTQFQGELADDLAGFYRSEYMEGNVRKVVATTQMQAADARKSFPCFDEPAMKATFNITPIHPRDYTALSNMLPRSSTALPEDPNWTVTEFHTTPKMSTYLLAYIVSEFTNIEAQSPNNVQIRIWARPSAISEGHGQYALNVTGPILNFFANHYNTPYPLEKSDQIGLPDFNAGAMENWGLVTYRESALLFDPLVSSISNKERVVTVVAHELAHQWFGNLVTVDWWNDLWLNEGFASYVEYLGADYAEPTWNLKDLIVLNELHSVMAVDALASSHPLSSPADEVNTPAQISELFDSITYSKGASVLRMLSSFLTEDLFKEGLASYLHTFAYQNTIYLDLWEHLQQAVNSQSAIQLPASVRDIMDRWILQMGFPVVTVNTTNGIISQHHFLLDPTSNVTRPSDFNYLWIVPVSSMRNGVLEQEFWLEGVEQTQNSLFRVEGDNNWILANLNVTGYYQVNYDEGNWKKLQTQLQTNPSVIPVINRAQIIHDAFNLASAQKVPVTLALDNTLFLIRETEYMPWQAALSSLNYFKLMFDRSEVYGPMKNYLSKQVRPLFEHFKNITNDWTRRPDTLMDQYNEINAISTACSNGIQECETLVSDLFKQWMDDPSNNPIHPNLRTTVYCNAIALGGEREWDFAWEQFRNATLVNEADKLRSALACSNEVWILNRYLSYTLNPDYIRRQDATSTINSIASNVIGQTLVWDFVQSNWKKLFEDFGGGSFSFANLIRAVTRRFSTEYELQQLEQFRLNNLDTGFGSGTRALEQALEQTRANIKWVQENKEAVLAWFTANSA
The experiment in a line: Inhibitory power on aminopeptidase, substrate [3H]Leu5-enkephalin. Format: biochemical. The note with it: purified rabbit kidney enzyme, [3H]Leu5-enkephalin substrate; read-out: Aminopeptidase(M), concentrations inhibitrices 50 % (converted).
Source text: Le pouvoir inhibiteur est mesuré sur l'aminopeptidase purifiée du rein de lapin en suivant le protocole décrit dans la littérature (Romaine Bouboutou, Gilles Waksman, Joceyline Deim, Marie-Claude Fournié-Zaluski and Bernard P. Roques, Life Sciences, vol. 35, pp. 1023-1030, 1984).
Le dosage est conduit d'une manière identique au précédent, en utilisant la [³H]Leu⁵-enképhaline à la place de la [³H]D-Ala²-Leu⁵-enképhaline comme substrat.
as §1

Experiment [3] addresses T3, dipeptidylaminopeptidase purifiée à partir du cerveau de rat (Rattus norvegicus, UniProt O55096).
T3 construct: purifiée à partir du cerveau de rat; from tissue; host or cells: rat brain
T3 sequence (O55096 2-738 limits assumed): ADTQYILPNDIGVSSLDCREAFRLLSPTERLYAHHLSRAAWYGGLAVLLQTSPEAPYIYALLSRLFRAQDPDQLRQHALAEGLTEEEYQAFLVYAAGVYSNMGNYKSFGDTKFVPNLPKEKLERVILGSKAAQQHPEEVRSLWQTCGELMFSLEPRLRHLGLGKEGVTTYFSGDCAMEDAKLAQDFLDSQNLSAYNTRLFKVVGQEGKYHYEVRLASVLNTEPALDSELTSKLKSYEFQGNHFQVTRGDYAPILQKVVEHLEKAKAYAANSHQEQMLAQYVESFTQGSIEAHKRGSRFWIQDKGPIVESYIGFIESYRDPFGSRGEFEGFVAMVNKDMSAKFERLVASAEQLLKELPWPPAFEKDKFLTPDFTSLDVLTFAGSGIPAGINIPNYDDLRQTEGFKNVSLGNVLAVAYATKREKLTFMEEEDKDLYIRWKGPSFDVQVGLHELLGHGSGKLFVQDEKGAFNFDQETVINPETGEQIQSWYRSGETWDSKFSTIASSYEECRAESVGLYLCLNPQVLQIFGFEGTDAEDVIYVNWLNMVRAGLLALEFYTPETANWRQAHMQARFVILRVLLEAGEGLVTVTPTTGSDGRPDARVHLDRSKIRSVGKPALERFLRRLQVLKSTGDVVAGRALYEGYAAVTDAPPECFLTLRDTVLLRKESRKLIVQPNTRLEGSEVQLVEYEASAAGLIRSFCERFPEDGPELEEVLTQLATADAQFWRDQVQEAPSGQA
In words: Inhibitory power on dipeptidylaminopeptidase, substrate [3H]Leu5-enkephalin. To be noted: enzyme purified from rat brain, [3H]Leu5-enkephalin substrate; read-out: Dipeptidyla-minopeptida-se(M), concentrations inhibitrices 50 % (converted). Format: biochemical.
Source text: Le pouvoir inhibiteur est mesuré sur la dipeptidylaminopeptidase purifiée à partir du cerveau de rat en suivant le protocole décrit (Romaine Bouboutou, Gilles Waksman, Joceyline Deim, Marie-Claude Fournié-Zaluski and Bernard P. Roques, Life Sciences, vol. 35, pp. 1023-1030, 1984).. On utilise également la [³H]Leu⁵-enképhaline comme substrat.
as §1

The subject of experiment [4] is souris. The experiment in a line: Hot plate test (licking and jump reflex, plate at 55°C). Format: in vivo. The note with it: mouse, intracerebroventricular, 50 )g, plate 55°C; for Saut: cut off 240 s. The procedure: Il concerne le réflexe de lèchement et de saut de la souris sur une plaque chauffée à 55°C selon la méthode de Jacob et coll. (Arch. Int. Pharmacodyn. 122, 287-300, 1959 : 133, 296-300, 1961).
Administrés par voie intracérébroventriculaire chez la souris, les inhibiteurs testés présentent un effet propre à la fois sur le temps de latence du saut et sur celui des lèchements. Ces effets sont reversés par la naloxone (antagoniste morphinique).
Le cut off correspond au moment où la souris est enlevée si elle n'a pas sauté ;
A general note: In hot-plate and tail-flick tests a longer latency is read as antinociception.

As to `CC(CC(=O)O)NC(=O)C(CC(=O)NO)Cc1ccccc1` (stereo not drawn) [compound 2, N[N(hydroxy)aminocarbonyl-3 benzyl-2 oxo-1 propyl] methyl-3 β alanine], the IC50 in experiment [1] was 5e-09 M; in experiment [2], 3e-07 M; in experiment [3] it was 5e-10 M.
For `CC(CC(=O)O)C(=O)N[C@@H](CC(=O)NO)Cc1ccccc1` (stereo partly shown) [compound 9] the same measures were 9e-10 M, 1e-05 M and 1.8e-07 M.
Regarding `CC(CC(=O)NC(CC(=O)NOCc1ccccc1)Cc1ccccc1)C(=O)O` (stereo not shown) [compound 10], the IC50 was 5e-10 M in experiment [1], 4e-06 M in experiment [2] and 8e-07 M in experiment [3].
`CC(CNC(=O)C(CC(=O)NO)Cc1ccccc1)C(=O)O` (stereo not drawn) [compound 3, N[N(hydroxy)aminocarbonyl-3 benzyl-2 oxo-1 propyl] methyl-2 β alanine]: the IC50 was 2e-09 M in experiment [1], 4e-07 M in experiment [2] and 2e-08 M in experiment [3].
In the same order, the values of “N[N-hydroxyamino) carbonyl-3 benzyl-2 oxo-1 propyl] phényl-2 β-alanine [compound 6]” are 1.5e-09 M, 8e-08 M and 1e-09 M.
As to `O=C(O)CCC(=O)N[C@@H](CC(=O)NO)Cc1ccccc1` [compound 8, N[carboxy-3 oxo-1 propyl) amino]-3 phenyl-4 (Nʹ[hydroxyamino]-1 oxo-1 butane], the IC50 in experiment [1] is 1.4e-09 M; in experiment [2], 1e-05 M; in experiment [3], 8e-07 M.
Consider `O=C(O)CCNC(=O)C(CC(=O)NO)Cc1ccccc1` (racemic) [compound 1, N[N(hydroxy)amino-carbonyl-3 benzyl-2 Oxo-1 propyl] β-alanine], for which the IC50 in experiment [1] was 2e-09 M; in experiment [2], 5e-07 M; in experiment [3], 3e-08 M.
`O=C(O)C[C@H](Cc1ccccc1)NC(=O)[C@@H](CC(=O)NO)Cc1ccccc1` [compound 5, N[N(hydroxy)aminocarbonyl-3 benzyl-2 oxo-1 propyl] benzyl-3 β alanine]: the values for the IC50 in experiment [1], in experiment [2] and in experiment [3] were 2e-09 M, 2e-08 M and 5e-10 M, respectively.
Turning to “Acide [N[N(hydroxyamino) carbonyl-1 phényl-3] propyl]-2 carboxamido-2 cyclohéxanoïque [compound 11]”, the values for the IC50 in experiment [1], in experiment [2] and in experiment [3] were 5e-10 M, 7e-08 M and 2e-09 M, respectively. Moreover, in experiment [4] (cut off 30 s), the “Lèchements” value was 30 s. Further, in experiment [4], the “Saut” value stood at 240 s.
Consider “Acide N[(hydroxy amino carbonyl)-3 benzyl-2 oxo-1 propyl] amino-2 cyclohéxane carboxylique [compound 7]”, for which the IC50 is 4e-09 M in experiment [1], 5e-08 M in experiment [2] and 1.5e-09 M in experiment [3]. Moreover, in experiment [4] (cut off 30 s), the “Lèchements (s)” value is on record as 26,2 s. Further, in experiment [4], the “Saut” value is listed as 240 s.
